Data as given in patent publication US20200399262A1, “COMPOUNDS FOR INHIBITING PROTEIN DEGRADATION AND METHODS OF USE THEREOF IN THE TREATMENT OF CANCER” (PI Therapeutics Ltd, priority 2018, published 2020).

Tests used:
[1] = system: HCT-116 xenograft; assay: HCT-116 colorectal flank xenograft in nude mice; assay type: in vivo; settings: 8 mg/kg IV, TIW for 21 days
From the text: (§1) FIG. 6A-6D show the evaluated in-vivo efficacy of Compound AA in a colorectal mouse flank xenograft models (HCT116, SW620). […] HCT-116 or SW620 cells (5×10^6 cells/mouse) were implanted in the rear flank of mail mice (6 weeks of age at the time of tumor implantation). On Day 20-23, mice were randomized for equivalent distribution of tumor volumes to treatment groups (n=5/group) and treated IV with vehicle, Compound AA (FIG. 6A, FIG. 6B) TIW for 21 days. Data are presented as mean tumor volume±SD. Body weight % changes in treated animals observed at end point (FIG. 6C, FIG. 6D). Animal xenograft models. MM1.S, HCT-116, SW620 cell lines were purchased from ATCC and used for xenograft model. The cells were cultured in RPMI medium (Sigma-Aldrich) supplemented with 10% fetal bovine serum (FBS) and divided for up to 5 passages. Shortly prior to injection, cell suspension was mixed with Matrigel at 1:[…]) and injected subcutaneously to the rear flank area of male nude athymic 6 weeks old mice to obtain administration of 5×10^6 cells/animal. On day 20-23, when tumor volume reached 100-150 mm^3, mice were randomized for equivalent distribution of tumor volumes to treatment groups (n=5/group) and treated via intravenous injection.

[2] = system: SW620 xenograft; assay: SW620 colorectal flank xenograft in nude mice; assay type: in vivo; settings: 8 mg/kg IV, TIW for 21 days
From the text: as §1

[3] = system: HT-29; assay: NCI60 screen cytotoxicity; assay type: cell-based; settings: Homo sapiens, Colon cancer, read-out: Compound B1 EC50
[4] = system: NCI-H23; assay: NCI60 screen cytotoxicity; assay type: cell-based; settings: Homo sapiens, Lung cancer, read-out: Compound B1 EC50
[5] = system: 786-0; assay: NCI60 screen cytotoxicity; assay type: cell-based; settings: Homo sapiens, Renal cancer, read-out: Compound B1 EC50
[6] = system: MALME-3M; assay: NCI60 screen cytotoxicity; assay type: cell-based; settings: Homo sapiens, Melanoma, read-out: Compound B1 EC50
[7] = system: SF-268; assay: NCI60 screen cytotoxicity; assay type: cell-based; settings: Homo sapiens, CNS, read-out: Compound B1 EC50
[8] = system: BT-549; assay: NCI60 screen cytotoxicity; assay type: cell-based; settings: Homo sapiens, Breast cancer, read-out: Compound B1 EC50
[9] = system: DU-145; assay: NCI60 screen cytotoxicity; assay type: cell-based; settings: Homo sapiens, Prostate cancer, read-out: Compound B1 EC50
[10] = system: OVCAR-4; assay: NCI60 screen cytotoxicity; assay type: cell-based; settings: Homo sapiens, Ovarian cancer, read-out: Compound B1 EC50
[11] = system: SW-620; assay: NCI60 screen cytotoxicity; assay type: cell-based; settings: Homo sapiens, Colon cancer, read-out: Compound B1 EC50
[12] = system: OVCAR-3; assay: NCI60 screen cytotoxicity; assay type: cell-based; settings: Homo sapiens, Ovarian cancer, read-out: Compound B1 EC50
[13] = system: SN12C; assay: NCI60 screen cytotoxicity; assay type: cell-based; settings: Homo sapiens, Renal cancer, read-out: Compound B1 EC50
[14] = system: KM-12; assay: NCI60 screen cytotoxicity; assay type: cell-based; settings: Homo sapiens, KM12, Colon cancer, read-out: Compound B1 EC50
[15] = system: A-549; assay: NCI60 screen cytotoxicity; assay type: cell-based; settings: Homo sapiens, A549, Lung cancer, read-out: Compound B1 EC50
[16] = system: COLO-205; assay: NCI60 screen cytotoxicity; assay type: cell-based; settings: Homo sapiens, Colon cancer, read-out: Compound B1 EC50
[17] = system: UACC-62; assay: NCI60 screen cytotoxicity; assay type: cell-based; settings: Homo sapiens, Melanoma, read-out: Compound B1 EC50
[18] = system: HOP-62; assay: NCI60 screen cytotoxicity; assay type: cell-based; settings: Homo sapiens, Lung cancer, read-out: Compound B1 EC50
[19] = system: ACHN; assay: NCI60 screen cytotoxicity; assay type: cell-based; settings: Homo sapiens, Renal cancer, read-out: Compound B1 EC50
[20] = system: HCC-2998; assay: NCI60 screen cytotoxicity; assay type: cell-based; settings: Homo sapiens, Colon cancer, read-out: Compound B1 EC50

CN(C)CCCS(=O)(=O)N1C/C(=C\c2ccc(C#N)cc2)C(=O)/C(=C/c2ccc(C#N)cc2)C1 [Compound AA]
not considerably affected: Animal body weight [1] | Animal body weight [2]
significantly inhibited tumor growth: tumor growth compared to vehicle control [1] | tumor growth compared to vehicle control [2]

CN(C)CC(=O)NCC(=O)N1C/C(=C\c2ccc(C#N)cc2)C(=O)/C(=C/c2ccc(C#N)cc2)C1 [Compound B1]
300 to 1000 nM: EC50 [3] | EC50 [5] | EC50 [10] | EC50 [15] | EC50 [16] | EC50 [17]
< 300 nM: EC50 [4] | EC50 [6] | EC50 [7] | EC50 [8] | EC50 [9] | EC50 [11] | EC50 [12] | EC50 [13] | EC50 [14] | EC50 [18] | EC50 [19] | EC50 [20]
